Experimental data taken from patent US9090662B2, “Dithioamine reducing agents” (WISCONSIN ALUMNI RESEARCH FOUNDATION, priority 2012, dated 2015).
Like-named read-outs stand apart in the source and are kept apart here. Marks after values point to notes of the source that are not given here.

Legend:
[1] = value from the literature, cited from earlier work
[2] = value from the literature, cited from earlier work; remark: listed apart in the source
[3] = from ref. 13; cited from earlier work
[4] = Determination of thiol pKa values (pH-titration monitored by absorbance at 238 nm); format: physicochemical; conditions: for pKa: potassium phosphate buffer, mean ± SE from this work
Description: The thiol pKa values of DTBA were determined by measuring its absorbance at 238 nm in solutions of different pH. The deprotonated thiolate absorbs much more strongly at 238 nm than does its protonated counterpart. [15a] This attribute was exploited for determining thiol pKa values as described previously. [15b] Buffered stock solutions of K3PO4, K2HPO4, and KH2PO4 (100 mM) were degassed and flushed with N2(g) for 1 h immediately prior to use. A stock solution of DTBA (1.5 mM) in KH2PO4 was then prepared. Various combinations of the buffered stock solutions were combined in duplicate to give two identical sets of 1-mL solutions of pH 5.5-11. KH2PO4 stock solution (70 μL) was added to each replicate pair of solutions and used to set the A238 to zero. Dithiol solution (70 μL) was then added to its complimentary 1-mL vial, and its absorbance at 238 nm was recorded. The pH of the solution was then immediately measured using a Beckman pH meter, which had been calibrated prior to use with pH 7 and pH 10 standard solutions from Fisher Scientific. This process was repeated multiple times to obtain a plot of A238 vs pH (FIG. 3).
pKa values were determined by fitting the data in FIG. 3 to eq 1, which is derived from Beer's law and the definition of the acid dissociation constant. [15b] In eq 1, CT is total thiol concentration, εSH^SH is the extinction coefficient of the doubly protonated form, εSH^S− is the extinction coefficient of the singly protonated form, and εS−^S−is the extinction coefficient of the unprotonated form. Both pKa values and extinction coefficients were determined from the curve fit.

[5] = Reduction potential (E°′) from HPLC redox equilibrium with oxidized DTT; format: physicochemical; conditions: for Keq for the reaction with oxidized DTT: 50 mM potassium phosphate buffer pH 7, 24 h, room temperature
Description: [2g] Data were obtained by a procedure similar to that described previously. [2g, 15b] […] The flask was then flushed with N2(g) for 30 min.
A 50 mM stock solution of potassium phosphate buffer (pH 7) was degassed and purged with N2(g) for 30 min immediately prior to use. Buffer (15 mL) was added, and the reaction mixture was stirred under N2(g) for 24 h at room temperature. The reaction mixture was then quenched by the addition of 3 N HCl (1:100 dilution). The reaction mixture was passed through a 4.5-μm filter, and 100 μL of the reaction mixture was analyzed immediately by HPLC using a Waters system equipped with a Waters 996 photodiode array detector, Empower 2 software, and a Varian C18 reverse-phase column. The column was eluted at 1.0 mL/min with water (5.0 mL), followed by a linear gradient (0-40% v/v) of acetonitrile/water over 40 min. Compounds were detected by their absorbance at 205 nm. Reduced and oxidized DTBA are highly polar and elute from the column immediately (as confirmed by LC-MS). Two peaks, however, were clearly visible in the chromatogram FIG. 4). […] Calibration curves were generated and found to be linear over the used concentration range.
The procedure described in Example 5 was also performed with BMS. […] A previously reported reduction potential for BMS was E°′=−0.31 V. [2g]

[6] = Kinetic studies on the reduction of oxidized βME; format: physicochemical
Description: The observed second-order rate constant (kobs) for a thiol-disulfide interchange reaction was determined by adapting a procedure described previously. [2e] When the disulfide is oxidized βME, a 50 mM stock solution of potassium phosphate buffer was degassed and purged with N2(g) for 30 min immediately prior to use. […] Phosphate buffer (2.5 mL) was added to the round-bottom flask containing the dithiol. Oxidized βME stock solution (2.5 mL) was then added, and the reaction mixture was stirred at room temperature under N2(g) for 1 min. The reaction mixture was quenched by the addition of 0.10 mL of 3 N HCl. The reaction mixture was passed through a 4.5-μm filter, and 100 μL of the reaction mixture was analyzed immediately by HPLC using a Varian C18 reverse-phase column. The column was eluted at 1.0 mL/min with water (5.0 mL), followed by a linear gradient (0-40% v/v) of acetonitrile/water over 40 min. The extent of reduction was determined by integrating the newly formed peak corresponding to βME at 205 nm (retention time: 8 min). This process was repeated for reaction times of 2 and 4 min. Calibration curves were generated and found to be linear over the used concentration range. The amount of residual oxidized βME was calculated, and second-order rate constants were calculated from a linear fit of the data in FIG. 1A (that is, kobs=[(1/cfinal)−(1/cinitial)]/t). […] Rate constants were the mean±SE from three experiments.

[7] = Kinetic studies on the reduction of oxidized L-glutathione; format: physicochemical; conditions: for kobs, second-order rate constant, reduction of oxidized L-glutathione: pH 7.0, 50 mM potassium phosphate buffer, mean ± SE from three experiments
Description: An experiment similar to that in Example 7 was conducted with disulfide=oxidized L-glutathione. Reactions were quenched at various time points (2, 4, 6, and 8 min) and 100 μL was analyzed by HPLC (1.0 mL/min with water (5.0 mL) in 0.1% v/v TFA, followed by a linear gradient (0-40% v/v) of acetonitrile in 0.1% v/v TFA over 40 min). The extent of reduction was determined by integrating the newly formed L-glutathione reduced peak at 220 nm (retention time of 7 min). Second-order rate constants were calculated from a linear fit of the data in FIG. 1B (that is, kobs=[(1/cfinal)−(1/cinitial)]/t). Rate constants were the mean±SE from three experiments.

papaya latex papain = molecular target: T1, papaya latex papain (Carica papaya, UniProt P00784); test: Kinetic studies on the reactivation of papain (reduction of mixed disulfide at Cys25); format: biochemical; conditions: 0.10 M imidazole-HCl buffer, pH 7.0, 2 mM EDTA; for kobs, second-order rate constant, reactivation of papain: mean ± SE from three experiments
T1 construct: Cys25 in the active site of papaya latex papain; from tissue; host or cells: papaya latex
T1 sequence (P00784 134-345): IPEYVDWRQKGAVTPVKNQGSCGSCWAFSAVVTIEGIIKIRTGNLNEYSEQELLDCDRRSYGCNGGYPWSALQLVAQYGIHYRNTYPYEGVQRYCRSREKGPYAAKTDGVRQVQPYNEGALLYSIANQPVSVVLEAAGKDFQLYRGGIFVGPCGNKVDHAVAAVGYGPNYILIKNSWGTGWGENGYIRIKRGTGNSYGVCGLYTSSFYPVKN
Description: Cys25 in the active site of papaya latex papain was oxidized as a mixed disulfide by a procedure described previously.[25] Briefly, a stock solution of methyl methanethiosulfonate (3.5 mM) was prepared by dilution of 5 μL of methyl methanethiosulfonate with 15 mL of 0.10 M potassium phosphate buffer, pH 7.0, containing EDTA (2 mM). KCl (0.011 g, 0.15 mmol) was added to 1.5 mL of this stock solution. The solution was deoxygenated by bubbling N2(g) through it for 15 min. Next, papain (5 mg, 150 units) was added, and the resulting solution was incubated at room temperature under N2(g) for 12 h. Excess methyl methanethiosulfonate was removed by size-exclusion chromatography using a Sephadex G-25 column. The final concentration of papain was determined by A280 using ε280=5.60×10^4 M^−1cm^−1. A solution (0.26 mL) of the chromatographed protein was diluted with 4.94 mL of deoxygenated aqueous buffer (0.10 M imidazole-HCl buffer, pH 7.0, containing 2 mM EDTA). Enzyme solution (1.25 mL) was then added to four separate vials. […] The rate of change in absorbance at 410 nm was recorded at 25° C. A unit of protein is defined by the amount of enzyme required to produce 1 μmol/min of 4-nitroaniline. Using an extinction coefficient for 4-nitroaniline of ε=8,800 M^−1cm^−1 at 410 nm, [27] the number of units of active papain in solution at each time point was calculated. […] Enzymatic activity (%) at particular times was calculated by dividing the number of active units of enzyme by the possible number of units in the solution, and was plotted as in FIG. 2A. To determine the value of the second-order rate constant kobs for the reducing agents, the second-order rate equation (eq 4) was transformed into eq 5, which was fitted to the data with the program PRISM 5.0. […] Values of kobs were the mean±SE from three experiments.

[8] = molecular target: T2, rabbit muscle creatine kinase (Oryctolagus cuniculus, UniProt P00563); test: Kinetic studies on the reactivation of creatine kinase (reduction of mixed disulfide at Cys283); format: biochemical; conditions: creatine kinase-Cys283-S—S-glutathione; mean ± SE from three experiments
T2 construct: Cys283 in the active site of rabbit muscle creatine kinase; from tissue; host or cells: rabbit muscle
Description: Cys283 in the active site of rabbit muscle creatine kinase was oxidized as a mixed disulfide by a procedure described previously, [28] but with a slight modification in the measurement of active enzyme. A unit of enzyme was defined as the amount required to produce 1 μmol/min of NADPH. Using an extinction coefficient for NADPH of ε=6.22 mM^−cm^−1 at 340 nm, the units of active creatine kinase in solution at a particular time were calculated. […] Enzymatic activity (%) at particular times was calculated by dividing the number of active units of enzyme by the possible number of units in the solution, and was plotted as in FIG. 2B. Values of the second-order rate constant k were determined by using eq 4 as described in Example 9, and were the mean±SE from three experiments.

[9] = Separation using DOWEX 50WX4-400 ion-exchange resin (Ellman's assay of filtrate); format: physicochemical; conditions: 0.10 M sodium phosphate buffer, pH 8.0, 1 mM EDTA
Description: A reaction buffer (0.10 M sodium phosphate, pH 8.0, 1 mM EDTA) was prepared. Ellman's reagent solution was prepared by adding Ellman's reagent (4 mg) to 1 mL of the reaction buffer. Next, to 25 mL of reaction buffer (0.10 M sodium phosphate, pH 8.0, 1 mM EDTA) was added DTBA (2.2 mg, 1.27×10^−5 mol) and 1.7 g of DOWEX 50WX4-400 ion-exchange resin. The mixture was swirled for several minutes and filtered through a fritted syringe. Ellman's reagent solution (50 μL) was added to two separate vials containing 2.5 mL of reaction buffer. As a blank, 250 μL of reaction buffer was added to one of the vials, and the absorbance at 412 nm was set to zero. Filtrate (250 μL) was then added to the other vial and its absorbance was recorded. With A412=0.012 and using an extinction coefficient of ε=14,150 M^−1cm^−1, [24b, 24c] it was calculated that >99% of DTBA was retained by the resin and thus removed from solution. […] See Example 3 for a more detailed explanation of similar calculations using Ellman's assay.

Solubility in water = format: physicochemical; conditions: HCl salt
[10] = pH 5.5, 50 mM potassium phosphate buffer
[11] = pH 7.0, 50 mM potassium phosphate buffer, mean ± SE from three experiments

T2 sequence (P00563 whole entry): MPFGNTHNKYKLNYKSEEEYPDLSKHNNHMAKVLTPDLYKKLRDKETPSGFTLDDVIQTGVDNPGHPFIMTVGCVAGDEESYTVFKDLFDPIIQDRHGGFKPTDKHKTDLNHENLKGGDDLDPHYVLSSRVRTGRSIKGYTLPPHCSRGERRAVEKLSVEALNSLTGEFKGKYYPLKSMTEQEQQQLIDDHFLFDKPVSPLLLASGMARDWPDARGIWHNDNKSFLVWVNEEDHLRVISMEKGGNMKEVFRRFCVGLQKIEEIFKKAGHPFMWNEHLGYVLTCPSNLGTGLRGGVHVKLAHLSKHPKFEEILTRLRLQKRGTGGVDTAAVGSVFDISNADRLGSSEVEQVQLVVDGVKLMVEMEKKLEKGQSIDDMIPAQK

Structure (SMILES) | Thiol pKa ([1]; lower (first) thiol pKa) | Disulfide Reduction Potential (E°′) [2] | Keq for the reaction with oxidized DTT [5] | kobs, second-order rate constant, reduction of oxidized βME [6, 10] | kobs, second-order rate constant, reduction of oxidized βME [6, 11] | kobs, second-order rate constant, reduction of oxidized L-glutathione [7] | kobs, second-order rate constant, reactivation of papain (papaya latex papain) | kobs, second-order rate constant, reactivation of creatine kinase [8] | Fraction removed from solution (retained) by Dowex 50 cation-exchange resin [9] | also measured
NCCS [Cysteamine] | 8.37^c | −0.203 V^b |  |  |  |  |  |  |  | Amino pKa [3]: 10.44
N[C@H](CS)CCS [DTBA, (2S)-2-amino-1,4-dimercaptobutane] |  |  | 0.469±0.131 | 0.0093 ± 0.0003 M⁻¹ s⁻¹ | 0.29 ± 0.02 M⁻¹ s⁻¹ | 0.83 ± 0.04 M⁻¹ s⁻¹ | 1342 ± 148 M⁻¹ s⁻¹ | 15.1 ± 1.0 M⁻¹ s⁻¹ | > 99% | pKa ([4]; lower (first) thiol pKa, 0.10 M potassium phosphate buffer): 8.2 ± 0.2; pKa ([4]; second (higher) thiol pKa, in parentheses in Table 1): 9.3 ± 0.1; kobs^DTBA/kobs^DTT, reduction of oxidized βME (fold faster than DTT) ([6]; pH 5.5): 4.4; kobs^DTBA/kobs^DTT, reduction of oxidized βME (fold faster than DTT) ([6]; pH 7.0): 3.5; kobs^DTBA/kobs^DTT, reduction of oxidized L-glutathione (fold faster than DTT) ([7]; pH 7.0): 5.2; kobs^DTBA/kobs^DTT, reduction of papain mixed disulfide (fold faster than DTT) (papaya latex papain): 14; Solubility in water (Solubility in water): high solubility in water
O=S(=O)(CCS)CCS [BMS, Bis(2-mercaptoethyl)sulfone] |  | −0.31 V | 0.0517±0.0194 |  |  |  |  |  |  | Disulfide Reduction Potential (E°′) ([5]; 50 mM potassium phosphate buffer pH 7, equilibrium with oxidized DTT, assuming E°′=−0.327 V for DTT, mean ± SE from seven experiments): −0.291±0.002 V; Thiol pKa ([1]; second (higher) thiol pKa): 9.0±0.2
O[C@H](CS)[C@H](O)CS (racemic) [DTT, (2S,3S)-1,4-dimercaptobutane-2,3-diol] |  |  |  | 0.0021 ± 0.0002 M⁻¹ s⁻¹ | 0.084 ± 0.004 M⁻¹ s⁻¹ | 0.16 ± 0.02 M⁻¹ s⁻¹ | 91.3 ± 9.4 M⁻¹ s⁻¹ | 17.5 ± 1.6 M⁻¹ s⁻¹ | < 1% | Residues in the reactive thiolate form ([4]; at pH 7): less than 1%; Thiol groups protonated (unreactive) ([4]; at pH 7, from lower thiol pKa […]): greater than 99%; Disulfide Reduction Potential (E°′) ([2]; listed as DTT (racemate)): −0.327 V^e
OCCS [βME, β-mercaptoethanol] | 9.61^a | −0.260 V^b |  |  |  |  |  |  |  | 
